How the values were obtained:
[1] = test system: Coxsackievirus; experiment: Inhibitory concentration to prevent formation of Coxsackievirus B3 (CVB3) plaques; assay type: functional, organism-based
[2] = test system: Enterovirus; experiment: Inhibitory concentration to prevent formation of Enterovirus (EV 71) plaques; assay type: functional, organism-based
[3] = test system: Rhabdomyosarcoma cell; experiment: Cytotoxic effect of compound towards human Rhabdomyosarcoma cell line was evaluated; assay type: functional, cell-based
[4] = test system: Coxsackievirus; experiment: Inhibitory concentration of compound against formation of Coxsackievirus B3 plaque in plaque reduction assay; assay type: functional, organism-based
[5] = test system: Coxsackievirus; experiment: Inhibitory concentration of compound against formation of Coxsackievirus B4 plaque in plaque reduction assay; assay type: functional, organism-based
[6] = test system: Coxsackievirus; experiment: Inhibitory concentration of compound against formation of Coxsackievirus B5 plaque in plaque reduction assay; assay type: functional, organism-based
[7] = test system: Coxsackievirus; experiment: Inhibitory concentration of compound against formation of Coxsackievirus B6 plaque in plaque reduction assay; assay type: functional, organism-based
[8] = test system: Echovirus; experiment: Inhibitory concentration of compound against formation of Echovirus 29 virus plaque in plaque reduction assay; assay type: functional, organism-based
[9] = test system: Echovirus; experiment: Inhibitory concentration of compound against formation of Echovirus 9 virus plaque in plaque reduction assay; assay type: functional, organism-based
[10] = test system: Influenza B virus; experiment: Inhibitory concentration of compound against formation of Influenza A virus (HK) plaque in plaque reduction assay; assay type: functional, organism-based
[11] = test system: Influenza A virus; experiment: Inhibitory concentration of compound against formation of Influenza A virus (WSN) plaque in plaque reduction assay; assay type: functional, organism-based
[12] = test system: Human rhinovirus sp.; experiment: Inhibitory concentration of compound against formation of Human rhinovirus 14 plaque in plaque reduction assay; assay type: functional, organism-based
[13] = test system: Human rhinovirus sp.; experiment: Inhibitory concentration of compound against formation of Human rhinovirus 2 plaque in plaque reduction assay; assay type: functional, organism-based
[14] = test system: Coxsackievirus; experiment: Inhibitory concentration of compound against formation of Coxsackievirus B1 plaque in plaque reduction assay; assay type: functional, organism-based
[15] = test system: Coxsackievirus; experiment: Inhibitory concentration of compound against formation of Coxsackievirus A16 plaque in plaque reduction assay; assay type: functional, organism-based
[16] = test system: Human alphaherpesvirus 1; experiment: Inhibitory concentration of compound against formation of Herpes simplex virus 1 plaque in plaque reduction assay
[17] = test system: Coxsackievirus; experiment: Inhibitory concentration of compound against formation of Coxsackievirus A10 plaque in plaque reduction assay; assay type: functional, organism-based
[18] = test system: Coxsackievirus; experiment: Inhibitory concentration of compound against formation of Coxsackievirus A24 plaque in plaque reduction assay; assay type: functional, organism-based
[19] = test system: Coxsackievirus; experiment: Inhibitory concentration of compound against formation of Coxsackievirus A9 plaque in plaque reduction assay; assay type: functional, organism-based
[20] = test system: Coxsackievirus; experiment: Inhibitory concentration of compound against formation of Coxsackievirus B2 plaque in plaque reduction assay; assay type: functional, organism-based
[21] = test system: Enterovirus; experiment: Inhibitory concentration of compound against formation of Enterovirus 68 (EV 68) plaque in plaque reduction assay; assay type: functional, organism-based
[22] = test system: Enterovirus; experiment: Inhibitory concentration of compound against formation of Enterovirus 71 (1743) genotype B plaque in plaque reduction assay; assay type: functional, organism-based
[23] = test system: Enterovirus; experiment: Inhibitory concentration of compound against formation of Enterovirus 71 (2231) genotype C plaque in plaque reduction assay; assay type: functional, organism-based
[24] = test system: Enterovirus; experiment: Inhibitory concentration of compound against formation of Enterovirus 71 (BrCr) genotype A plaque in plaque reduction assay; assay type: functional, organism-based

## CCCn1ncc2c(N3CCN(C(c4ccccc4)c4ccccc4)CC3)ncnc21
[1]
  IC50: > 25000 nM
[2]
  IC50: > 25000 nM
[3]
  IC50: > 25 µM

## Cc1ccsc1C(c1ccccc1Br)N1CCN(c2ncnc3c2cnn3-c2ccccc2)CC1 (stereo unspecified)
[1]
  IC50: 72 nM
[2]
  IC50: 320 nM
[3]
  IC50: > 25 µM

## Brc1ccc(C(c2ccccc2)N2CCN(c3ncnc4c3cnn4-c3ccccc3)CC2)cc1 (stereo unspecified)
[1]
  IC50: 490 nM
[2]
  IC50: 910 nM
[3]
  IC50: > 25 µM

## CCn1ncc2c(N3CCN(C(c4ccccc4)c4ccccc4)CC3)ncnc21
[1]
  IC50: > 25000 nM
[2]
  IC50: > 25000 nM
[3]
  IC50: > 25 µM

## c1ccc(C(c2nccs2)N2CCN(c3ncnc4c3cnn4-c3ccccc3)CC2)cc1 (stereo unspecified)
[1]
  IC50: 110 nM
[2]
  IC50: 340 nM
[3]
  IC50: > 25 µM

## Cc1ccsc1C(c1c(C)noc1C)N1CCN(c2ncnc3c2cnn3-c2ccccc2)CC1 (stereo unspecified)
[1]
  IC50: 81 nM
[2]
  IC50: 650 nM
[3]
  IC50: > 25 µM

## FC(F)(F)c1ccc(C(c2ccccc2)N2CCN(c3ncnc4c3cnn4-c3ccccc3)CC2)cc1 (stereo unspecified)
[1]
  IC50: 300 nM
[2]
  IC50: 1650 nM
[3]
  IC50: > 25 µM

## Cc1ccccc1C(c1sccc1C)N1CCN(c2ncnc3c2cnn3-c2ccccc2)CC1 (stereo unspecified)
[1]
  IC50: 84 nM
[2]
  IC50: 410 nM
[3]
  IC50: > 25 µM

## c1ccc(C(c2ccco2)N2CCN(c3ncnc4c3cnn4-c3ccccc3)CC2)cc1 (stereo unspecified)
[1]
  IC50: 270 nM
[2]
  IC50: 1250 nM
[3]
  IC50: > 25 µM

## Cc1noc(C)c1C(c1ccccc1)N1CCN(c2ncnc3c2cnn3-c2ccccc2)CC1 (stereo unspecified)
[1]
  IC50: 95 nM
[2]
  IC50: 580 nM
[3]
  IC50: > 25 µM

## Cc1ccccc1C(c1ccccc1)N1CCN(c2ncnc3c2cnn3-c2ccccc2)CC1 (stereo unspecified)
[1]
  IC50: 310 nM
[2]
  IC50: 1980 nM
[3]
  IC50: > 25 µM

## c1ccc(C(c2ccccc2)N2CCN(c3[nH]cnc4nncc3-4)CC2)cc1
[1]
  IC50: > 25000 nM
[2]
  IC50: > 25000 nM
[3]
  IC50: > 25 µM

## N#Cc1ccc(C(c2ccccc2)N2CCN(c3ncnc4c3cnn4-c3ccccc3)CC2)cc1 (stereo unspecified)
[1]
  IC50: 180 nM
[2]
  IC50: 940 nM
[3]
  IC50: > 25 µM

## c1ccc(C(c2cccnc2)N2CCN(c3ncnc4c3cnn4-c3ccccc3)CC2)cc1 (stereo unspecified)
[1]
  IC50: 530 nM
[2]
  IC50: 4600 nM
[3]
  IC50: > 25 µM

## O=C1N(CCCCCCOc2ccc(Br)cc2)CCN1c1ccncc1
[4]
  IC50: > 25000 nM
[5]
  IC50: > 25000 nM
[6]
  IC50: > 25000 nM
[7]
  IC50: > 25000 nM
[8]
  IC50: > 25 µM
[9]
  IC50: 2820 nM
[10]
  IC50: > 25 µM
[11]
  IC50: > 25 µM
[12]
  IC50: 11.6 µM
[13]
  IC50: > 25 µM
[14]
  IC50: > 25000 nM
[15]
  IC50: > 25000 nM
[16]
  IC50: > 25 µM

## c1ccc(-c2ccc(C(c3ccccc3)N3CCN(c4ncnc5c4cnn5-c4ccccc4)CC3)cc2)cc1 (stereo unspecified)
[1]
  IC50: 310 nM
[2]
  IC50: 1900 nM
[3]
  IC50: > 25 µM

## Clc1ccc(C(c2ccccc2)N2CCN(c3ncnc4c3cnn4-c3ccccc3)CC2)cc1 (stereo unspecified)
[1]
  IC50: 260 nM
[2]
  IC50: 1970 nM
[3]
  IC50: > 25 µM

## c1ccc(C(c2ccccc2)N2CCN(c3ncnc4c3cnn4-c3ccccc3)CC2)cc1
[17]
  IC50: 390 nM
[18]
  IC50: 50 nM
[19]
  IC50: 260 nM
[20]
  IC50: 80 nM
[1]
  IC50: 150 nM
[4]
  IC50: 150 nM
[5]
  IC50: 160 nM
[6]
  IC50: 440 nM
[7]
  IC50: 940 nM
[8]
  IC50: > 25 µM
[9]
  IC50: 300 nM
[2]
  IC50: 410 nM
[21]
  IC50: 180 nM
[22]
  IC50: 470 nM
[23]
  IC50: 520 nM
[24]
  IC50: 350 nM
[10]
  IC50: > 25 µM
[11]
  IC50: > 25 µM
[12]
  IC50: > 25 µM
[13]
  IC50: > 25 µM
[3]
  IC50: > 25 µM
[14]; Coxsackievirus
  IC50: 690 nM
[15]
  IC50: 230 nM
[16]
  IC50: > 25 µM

## c1ccc(C(c2ccccn2)N2CCN(c3ncnc4c3cnn4-c3ccccc3)CC2)cc1 (stereo unspecified)
[1]
  IC50: 170 nM
[2]
  IC50: 370 nM
[3]
  IC50: > 25 µM

## c1ccc(C(c2ccncc2)N2CCN(c3ncnc4c3cnn4-c3ccccc3)CC2)cc1 (stereo unspecified)
[1]
  IC50: 300 nM
[2]
  IC50: 780 nM
[3]
  IC50: > 25 µM

## Cc1ccsc1C(c1ccccn1)N1CCN(c2ncnc3c2cnn3-c2ccccc2)CC1 (stereo unspecified)
[1]
  IC50: 63 nM
[2]
  IC50: 360 nM
[3]
  IC50: > 25 µM

## c1ccc(Cn2ncc3c(N4CCN(C(c5ccccc5)c5ccccc5)CC4)ncnc32)cc1
[1]
  IC50: > 25000 nM
[2]
  IC50: > 25000 nM
[3]
  IC50: > 25 µM

## N#Cc1cccc(C(c2ccccc2)N2CCN(c3ncnc4c3cnn4-c3ccccc3)CC2)c1 (stereo unspecified)
[1]
  IC50: 110 nM
[2]
  IC50: 780 nM
[3]
  IC50: > 25 µM

## Cn1ncc2c(N3CCN(C(c4ccccc4)c4ccccc4)CC3)ncnc21
[1]
  IC50: > 25000 nM
[2]
  IC50: > 25000 nM
[3]
  IC50: > 25 µM

## Cc1ccsc1C(c1ccccc1)N1CCN(c2ncnc3c2cnn3-c2ccccc2)CC1 (stereo unspecified)
[1]
  IC50: 89 nM
[2]
  IC50: 460 nM
[3]
  IC50: > 25 µM

— ChEMBL document CHEMBL1146731, “Design, synthesis, and structure-activity relationships of pyrazolo[3,4-d]pyrimidines: a novel class of potent enterovirus inhibitors” (Bioorg Med Chem Lett, 2004)
